Earlier results as cited in patent US11732223B2, “Solvent compositions for removing petroleum residue from a substrate and methods of use thereof” (priority 2004, dated 2023).

System: rats

Compound: CCCCOCCOCCO [butyl carbitol]
- oral LD50 (oral, rats): 6,560 mg/kg
- toxicity rating on the Hodge and Sterner scale (rat, in vivo): 5
